# ChEMBL document CHEMBL1122412, “Synthesis of a biologically active fluorescent muramyl dipeptide congener” (1983)
# Values joined by “and” are separate entries in the source; they are usually repeats but may differ in a detail not shown here. Equal entries are not always repeated.
# Tests used:
# Type in all cases: functional
# Cavia porcellus [1] = species on record: Cavia porcellus; experiment: Ability of MDP to inhibit migration of cultured guinea pig peritoneal exudate macrophages at 10 ug/mL concentration in expt 4
# Cavia porcellus [2] = species on record: Cavia porcellus; experiment: Ability of MDP to inhibit migration of cultured guinea pig peritoneal exudate macrophages at 1 ug/mL concentration in expt 5
# Cavia porcellus [3] = species on record: Cavia porcellus; experiment: Ability of MDP to inhibit migration of cultured guinea pig peritoneal exudate macrophages at 1 ug/mL concentration in expt 1
# Cavia porcellus [4] = species on record: Cavia porcellus; experiment: Ability of MDP to inhibit migration of cultured guinea pig peritoneal exudate macrophages at 0.01 ug/mL concentration in expt 3
# Cavia porcellus [5] = species on record: Cavia porcellus; experiment: Ability of MDP to inhibit migration of cultured guinea pig peritoneal exudate macrophages at 0.1 ug/mL concentration in expt 4
# Cavia porcellus [6] = species on record: Cavia porcellus; experiment: Ability of MDP to induce spreading of cultured guinea pig peritoneal exudate macrophages at 1 ug/mL concentration
# Cavia porcellus [7] = species on record: Cavia porcellus; experiment: Ability of MDP to inhibit migration of cultured guinea pig peritoneal exudate macrophages at 10 ug/mL concentration in expt 5
# Cavia porcellus [8] = species on record: Cavia porcellus; experiment: Ability of MDP to inhibit migration of cultured guinea pig peritoneal exudate macrophages at 0.1 ug/mL concentration in expt 5
# Cavia porcellus [9] = species on record: Cavia porcellus; experiment: Ability of MDP to inhibit migration of cultured guinea pig peritoneal exudate macrophages at 1 ug/mL concentration in expt 4
# Cavia porcellus [10] = species on record: Cavia porcellus; experiment: Ability of MDP to inhibit migration of cultured guinea pig peritoneal exudate macrophages at 0.1 ug/mL concentration in expt 2
# Cavia porcellus [11] = species on record: Cavia porcellus; experiment: Ability of MDP to inhibit migration of cultured guinea pig peritoneal exudate macrophages at 1 ug/mL concentration in expt 2
# Cavia porcellus [12] = species on record: Cavia porcellus; experiment: Ability of MDP to inhibit migration of cultured guinea pig peritoneal exudate macrophages at 0.1 ug/mL concentration in expt 3
# Cavia porcellus [13] = species on record: Cavia porcellus; experiment: Ability of MDP to inhibit migration of cultured guinea pig peritoneal exudate macrophages at 0.01 ug/mL concentration in expt 2
# Cavia porcellus [14] = species on record: Cavia porcellus; experiment: Ability of MDP to inhibit migration of cultured guinea pig peritoneal exudate macrophages at 1 ug/mL concentration in expt 3
# Cavia porcellus [15] = species on record: Cavia porcellus; experiment: Ability of MDP to induce spreading of cultured guinea pig peritoneal exudate macrophages at 0.01 ug/mL concentration
# Cavia porcellus [16] = species on record: Cavia porcellus; experiment: Ability of MDP to induce spreading of cultured guinea pig peritoneal exudate macrophages at 10 ug/mL concentration
# Cavia porcellus [17] = species on record: Cavia porcellus; experiment: Ability of MDP to inhibit migration of cultured guinea pig peritoneal exudate macrophages at 0.01 ug/mL concentration in expt 1
# Cavia porcellus [18] = species on record: Cavia porcellus; experiment: Ability of MDP to induce spreading of cultured guinea pig peritoneal exudate macrophages at 0.1 ug/mL concentration
# Cavia porcellus [19] = species on record: Cavia porcellus; experiment: Ability of MDP to inhibit migration of cultured guinea pig peritoneal exudate macrophages at 0.1 ug/mL concentration in expt 1
# Cavia porcellus [20] = species on record: Cavia porcellus; experiment: Ability of L,L-MDP to inhibit migration of cultured guinea pig peritoneal exudate macrophages at 0.01 ug/mL concentration in expt 4
# Cavia porcellus [21] = species on record: Cavia porcellus; experiment: Ability of P-MDP to inhibit migration of cultured guinea pig peritoneal exudate macrophages at 1 ug/mL concentration in expt 4
# Cavia porcellus [22] = species on record: Cavia porcellus; experiment: Ability of L,L-MDP to induce spreading of cultured guinea pig peritoneal exudate macrophages at 0.01 ug/mL concentration
# Cavia porcellus [23] = species on record: Cavia porcellus; experiment: Ability of I-MDP to induce spreading of cultured guinea pig peritoneal exudate macrophages at 0.1 ug/mL concentration
# Cavia porcellus [24] = species on record: Cavia porcellus; experiment: Ability of L,L-MDP to inhibit migration of cultured guinea pig peritoneal exudate macrophages at 10 ug/mL concentration in expt 5
# Cavia porcellus [25] = species on record: Cavia porcellus; experiment: Ability of I-MDP to induce spreading of cultured guinea pig peritoneal exudate macrophages at 1 ug/mL concentration
# Cavia porcellus [26] = species on record: Cavia porcellus; experiment: Ability of P-MDP to induce spreading of cultured guinea pig peritoneal exudate macrophages at 0.1 ug/mL concentration
# Cavia porcellus [27] = species on record: Cavia porcellus; experiment: Ability of P-MDP to induce spreading of cultured guinea pig peritoneal exudate macrophages at 0.01 ug/mL concentration
# Cavia porcellus [28] = species on record: Cavia porcellus; experiment: Ability of I-MDP to inhibit migration of cultured guinea pig peritoneal exudate macrophages at 10 ug/mL concentration in expt 2
# Cavia porcellus [29] = species on record: Cavia porcellus; experiment: Ability of P-MDP to inhibit migration of cultured guinea pig peritoneal exudate macrophages at 0.01 ug/mL concentration in expt 3
# Cavia porcellus [30] = species on record: Cavia porcellus; experiment: Ability of P-MDP to inhibit migration of cultured guinea pig peritoneal exudate macrophages at 10 ug/mL concentration in expt 4
# Cavia porcellus [31] = species on record: Cavia porcellus; experiment: Ability of P-MDP to inhibit migration of cultured guinea pig peritoneal exudate macrophages at 0.1 ug/mL concentration in expt 3
# Cavia porcellus [32] = species on record: Cavia porcellus; experiment: Ability of I-MDP to inhibit migration of cultured guinea pig peritoneal exudate macrophages at 0.01 ug/mL concentration in expt 1
# Cavia porcellus [33] = species on record: Cavia porcellus; experiment: Ability of I-MDP to inhibit migration of cultured guinea pig peritoneal exudate macrophages at 1 ug/mL concentration in expt 2
# Cavia porcellus [34] = species on record: Cavia porcellus; experiment: Ability of L,L-MDP to induce spreading of cultured guinea pig peritoneal exudate macrophages at 10 ug/mL concentration
# Cavia porcellus [35] = species on record: Cavia porcellus; experiment: Ability of L,L-MDP to induce spreading of cultured guinea pig peritoneal exudate macrophages at 0.1 ug/mL concentration
# Cavia porcellus [36] = species on record: Cavia porcellus; experiment: Ability of L,L-MDP to inhibit migration of cultured guinea pig peritoneal exudate macrophages at 1 ug/mL concentration in expt 4
# Cavia porcellus [37] = species on record: Cavia porcellus; experiment: Ability of P-MDP to inhibit migration of cultured guinea pig peritoneal exudate macrophages at 0.01 ug/mL concentration in expt 2
# Cavia porcellus [38] = species on record: Cavia porcellus; experiment: Ability of L,L-MDP to inhibit migration of cultured guinea pig peritoneal exudate macrophages at 0.1 ug/mL concentration in expt 4
# Cavia porcellus [39] = species on record: Cavia porcellus; experiment: Ability of P-MDP to induce spreading of cultured guinea pig peritoneal exudate macrophages at 1 ug/mL concentration
# Cavia porcellus [40] = species on record: Cavia porcellus; experiment: Ability of P-MDP to inhibit migration of cultured guinea pig peritoneal exudate macrophages at 1 ug/mL concentration in expt 3
# Cavia porcellus [41] = species on record: Cavia porcellus; experiment: Ability of I-MDP to inhibit migration of cultured guinea pig peritoneal exudate macrophages at 0.1 ug/mL concentration in expt 2
# Cavia porcellus [42] = species on record: Cavia porcellus; experiment: Ability of P-MDP to induce spreading of cultured guinea pig peritoneal exudate macrophages at 10 ug/mL concentration
# Cavia porcellus [43] = species on record: Cavia porcellus; experiment: Ability of I-MDP to inhibit migration of cultured guinea pig peritoneal exudate macrophages at 0.1 ug/mL concentration in expt 1
# Cavia porcellus [44] = species on record: Cavia porcellus; experiment: Ability of I-MDP to induce spreading of cultured guinea pig peritoneal exudate macrophages at 0.01 ug/mL concentration
# Cavia porcellus [45] = species on record: Cavia porcellus; experiment: Ability of I-MDP to induce spreading of cultured guinea pig peritoneal exudate macrophages at 10 ug/mL concentration
# Cavia porcellus [46] = species on record: Cavia porcellus; experiment: Ability of L,L-MDP to induce spreading of cultured guinea pig peritoneal exudate macrophages at 1 ug/mL concentration
# Cavia porcellus [47] = species on record: Cavia porcellus; experiment: Ability of I-MDP to inhibit migration of cultured guinea pig peritoneal exudate macrophages at 1 ug/mL concentration in expt 1
compound,measurement,setting,value
CC(=O)N[C@@H]1[C@@H](O[C@H](C)C(=O)N[C@@H](C)C(=O)N[C@H](CCC(=O)[O-])C(N)=O)[C@H](O)[C@@H](COc2nc(O)nc(N=C3C=CC(=C4c5ccc(O)cc5Oc5cc(O)ccc54)C(C(=O)[O-])=C3)n2)O[C@H]1O.[Na+].[Na+],Migration index,Cavia porcellus [1],53
same,Migration index,Cavia porcellus [2],70
same,Migration index,Cavia porcellus [3],63
same,Migration index,Cavia porcellus [4],62
same,Migration index,Cavia porcellus [5],51
same,Spreading,Cavia porcellus [6],74.3%
same,Migration index,Cavia porcellus [7],74
same,Migration index,Cavia porcellus [8],74
same,Migration index,Cavia porcellus [9],49
same,Migration index,Cavia porcellus [10],52
same,Migration index,Cavia porcellus [11],60
same,Migration index,Cavia porcellus [12],27
same,Migration index,Cavia porcellus [13],84
same,Migration index,Cavia porcellus [14],18
same,Spreading,Cavia porcellus [15],45%
same,Spreading,Cavia porcellus [16],73.3%
same,Migration index,Cavia porcellus [17],73
same,Spreading,Cavia porcellus [18],68.5%
same,Migration index,Cavia porcellus [19],102
CC(=O)N[C@H]1C(O)O[C@H](CO)[C@@H](O)[C@@H]1O[C@H](C)C(=O)N[C@@H](C)C(=O)N[C@H](CCC(=O)O)C(N)=O (some centres not stated) [MURAMYL DIPEPTIDE],Migration index,Cavia porcellus [20],54
same,Migration index,Cavia porcellus [21],62
same,Spreading,Cavia porcellus [22],48%
same,Spreading,Cavia porcellus [23],72.5%
same,Migration index,Cavia porcellus [24],65
same,Spreading,Cavia porcellus [25],73%
same,Spreading,Cavia porcellus [26],80%
same,Spreading,Cavia porcellus [27],62.5%
same,Migration index,Cavia porcellus [28],64
same,Migration index,Cavia porcellus [29],12
same,Migration index,Cavia porcellus [30],52 and 63
same,Migration index,Cavia porcellus [31],52 and 34 and 26
same,Migration index,Cavia porcellus [32],119 and 92 and 108
same,Migration index,Cavia porcellus [33],61 and 64
same,Spreading,Cavia porcellus [34],76%
same,Spreading,Cavia porcellus [35],56%
same,Migration index,Cavia porcellus [36],52
same,Migration index,Cavia porcellus [37],63
same,Migration index,Cavia porcellus [38],58
same,Spreading,Cavia porcellus [39],75.5%
same,Migration index,Cavia porcellus [40],17 and 34
same,Migration index,Cavia porcellus [41],64 and 68
same,Spreading,Cavia porcellus [42],79%
same,Migration index,Cavia porcellus [43],68 and 88
same,Spreading,Cavia porcellus [44],50%
same,Spreading,Cavia porcellus [45],80%
same,Spreading,Cavia porcellus [46],51.5%
same,Migration index,Cavia porcellus [47],70 and 114
